Key:
androgen receptor = experiment: Androgen receptor expression by immunoblotting in SZ95 sebocytes; format: cell-based, human; conditions: for inhibition of the androgen receptor expression compared to native SZ95 sebocytes: 1.0 μM, after 14 h; for protein expression of the androgen receptor: 0.4 and 1.0 μM, after 24 hours
SZ95 sebocytes = experiment: SZ95 sebocyte proliferation, crystal violet assay; format: cell-based, human; conditions: for inhibition of the testosterone-induced stimulation of the SZ95 sebocyte proliferation: 10^−7 M testosterone, stimulation period 44 hours; for increase in proliferation: after 72 h, native SZ95 sebocytes
[1] = 1 μM oligonucleotide, 4 h transfection, 14 h recovery

Molecule	inhibition of the androgen receptor expression compared to native SZ95 sebocytes (androgen receptor) [%]	protein expression of the androgen receptor (androgen receptor)	inhibition of the testosterone-induced stimulation of the SZ95 sebocyte proliferation (SZ95 sebocytes; [1])	also measured
5′-GCCAAGCUCAAGGAUGGAAGUGCAG-3′ (antisense GCCAAGCUCAAGGAUGGAAGUGCAG; 2'-O-methylribose, further chemistry not given here) [methylribosyl antisense oligonucleotide against the androgen receptor]	87	reduced protein expression	highly significant	–
5′-CTGCCCTTCAATCCCTGAGTTTGGC-3′ (DNA CTGCCCTTCAATCCCTGAGTTTGGC; listed as DNA, chemistry not given here) [mismatch-oligonucleotide, mismatch control oligonucleotide to safeguard antisense specificity, reference compound]	–	–	–	protein expression of the androgen receptor versus non-transfected cells (androgen receptor; four hours' transfection with DOTAP, recovery phase of at least 24 hours, Western blot): comparable
C[C@]12CCC(=O)C[C@@H]1CC[C@@H]1[C@@H]2CC[C@]2(C)[C@@H](O)CC[C@@H]12 [DHT, 5α-dihydrotestosterone, reference compound]	–	–	–	increase in proliferation (SZ95 sebocytes; 10^−7-10^−6 DHT): significant
C[C@]12CC[C@H]3[C@@H](CCC4=CC(=O)CC[C@@]43C)[C@@H]1CC[C@@H]2O [testosterone, reference compound]	–	–	–	increase in proliferation (SZ95 sebocytes; 10^−7 and 5×10^−7 M testosterone): significant
5′-CTGCACTTCCATCCTTGAGCTTGGC-3′ [Thioate antisense oligonucleotide]	39	reduced protein expression	inhibited	proliferation pattern in the presence of testosterone (SZ95 sebocytes; [1]): same proliferation pattern as native cells

From patent US20050053580A1, “Use of microbiology non-viral substances for treating acne” (priority 2001, published 2005)
